Source: patent US9783524B2, “Protein tyrosine kinase modulators and methods of use” (BETTA PHARMACEUTICALS CO., LTD., priority 2013, dated 2017)
Where two headings read alike, the source gives them in different places.

How the values were obtained:
Format in all cases: biochemical, human
[1] = system: ALK (h)
Experimental: (§1) Assay conditions included 10 μM ATP and 100 nM test compounds.
(§2) All reactions are initiated by the addition of the MgATP mix. After incubation for 40 minutes at room temperature, the reaction is stopped by the addition of 3% phosphoric acid solution. 10 μL of the reaction is then spotted onto a P30 filtermat and washed three times for 5 minutes in 75 mM phosphoric acid and once in methanol prior to drying and scintillation counting. This assay is performed by Millipore. The experiment is carried out in duplicate. The value for the control sample (DMSO) was set to 100%, and the values for the compound-treated samples were expressed as activity relative to the control sample.

[2] = system: EGFR (T790M, L858R) (h)
Experimental: as §1
(§3) All reactions are initiated by the addition of the MgATP mix. After incubation for 40 minutes at room temperature, the reaction is stopped by the addition of 3% phosphoric acid solution. 10 μL of the reaction is then spotted onto a P30 filtermat and washed three times for 5 minutes in 75 mM phosphoric acid and once in methanol prior to drying and scintillation counting. […] The experiment is carried out in duplicate. The value for the control sample (DMSO) was set to 100%, and the values for the compound-treated samples were expressed as activity relative to the control sample.
(§4) (specific activity approx. 500 cpm/pmol, concentration as required) and 0.1 μM test compound.

[3] = system: EGFR (T790M) (h)
Experimental: as §1, §2

[4] = system: EGFR (L858R) (h)
Experimental: as §1, §3, §4

[5] = 0.1 μM test compound, 10 μM ATP, remaining activity relative to DMSO control = 100%

Row | Structure (SMILES) | Activity (control) % ALK (h) [1, 5] | Activity (control) % EGFR (T790M, L858R) (h) [2, 5] | Activity (control) % EGFR (T790M) (h) [3, 5] | Activity (control) % EGFR (L858R) (h) [4, 5] | Activity (control) % ALK (h) [1] | Activity (control) % EGFR (T790M, L858R) (h) [2] | Activity (control) % EGFR (T790M) (h) [3] | Activity (control) % EGFR (L858R) (h) [4]
1 | COc1cc(Nc2ncc(Cl)c(Nc3ccccc3C(=O)C(=O)N(C)C)n2)ccc1N1CCOCC1 [Example 117, 2-(2-(5-chloro-2-(3-methoxy-4-morpholinophenylamino)pyrimidin-4-ylamino)phenyl)-N,N-dimethyl-2-oxoacetamide] | 8% | 14% | 65% | 88% |  |  |  | 
2 | COc1cc(Nc2ncc(Cl)c(Nc3ccccc3C(=O)C(=O)N(C)C)n2)ccc1N1CCN(C)CC1 [Example 61, 2-(2-(5-chloro-2-(3-methoxy-4-(4-methylpiperazin-1-yl)phenylamino)pyrimidin-4-ylamino)phenyl)-N,N-dimethyl-2-oxoacetamide] |  |  |  |  | 5% | 13% | 54% | 70%
3 | C=CC(=O)Nc1cc(Nc2ncc(Cl)c(Nc3ccccc3C(=O)C(=O)NC)n2)ccc1OC [Example 64, N-(5-(5-chloro-4-(2-(2-(methylamino)-2-oxoacetyl)phenylamino)pyrimidin-2-ylamino)-2-methoxyphenyl)acrylamide] | 47% | 39% | 79% | 100% |  |  |  | 
4 | C=CC(=O)Nc1ccc(OC)c(Nc2ncc(Cl)c(Nc3ccccc3C(=O)C(=O)N(CC)CC)n2)c1 [Example 131, N-(3-(5-chloro-4-(2-(2-(diethylamino)-2-oxoacetyl)phenylamino)pyrimidin-2-ylamino)-4-methoxyphenyl)acrylamide] | 9% | 27% | 82% |  |  |  |  | 
5 | C=CC(=O)Nc1cccc(Nc2ncc(Cl)c(Nc3ccccc3C(=O)C(=O)N(C)C)n2)c1 [Example 40, N-(3-(5-chloro-4-(2-(2-(dimethylamino)-2-oxoacetyl)phenylamino)pyrimidin-2-ylamino)phenyl)acrylamide] | 28% | 24% | 79% |  |  |  |  | 
6 | C=CC(=O)Nc1ccc(N2CCN(C)CC2)c(Nc2ncc(Cl)c(Nc3ccccc3C(=O)C(=O)N(C)C)n2)c1 [Example 135, N-(3-(5-chloro-4-(2-(2-(dimethylamino)-2-oxoacetyl)phenylamino)pyrimidin-2-ylamino)-4-(4-methylpiperazin-1-yl)phenyl)acrylamide] | 80% | 95% | 96% |  |  |  |  | 
7 | COc1cc(N2CCN(C(C)=O)CC2)ccc1Nc1ncc(Cl)c(Nc2ccccc2C(=O)C(=O)N(C)C)n1 [Example 53, 2-(2-(2-(4-(4-acetylpiperazin-1-yl)-2-methoxyphenylamino)-5-chloropyrimidin-4-ylamino)phenyl)-N,N-dimethyl-2-oxoacetamide] |  | 4% | 21% | 60% |  |  |  | 
8 | C=CC(=O)Nc1cc(Nc2ncc(Cl)c(Nc3ccccc3C(=O)C(=O)N(CC)CC)n2)ccc1OC [Example 132, N-(5-(5-chloro-4-(2-(2-(diethylamino)-2-oxoacetyl)phenylamino)pyrimidin-2-ylamino)-2-methoxyphenyl)acrylamide] | 16% | 30% | 77% |  |  |  |  | 
9 | C=CC(=O)Nc1cc(Nc2ncc(Cl)c(Nc3ccccc3C(=O)C(=O)N(C)C)n2)ccc1OCCN(C)C [Example 115, N-(5-(5-chloro-4-(2-(2-(dimethylamino)-2-oxoacetyl)phenylamino)pyrimidin-2-ylamino)-2-(2-(dimethylamino)ethoxy)phenyl)acrylamide] | 6% |  |  |  |  |  |  | 
10 | C=CC(=O)N1CCOc2ccc(Nc3ncc(Cl)c(Nc4ccccc4C(=O)C(=O)N(C)C)n3)cc21 [Example 87, 2-(2-(2-(4-acryloyl-3,4-dihydro-2H-benzo[b][1,4]oxazin-6-ylamino)-5-chloropyrimidin-4-ylamino)phenyl)-N,N-dimethyl-2-oxoacetamide] |  |  |  |  | 5% |  |  | 
